Patent US9211290B2, “Solid dispersions of amorphous paroxetine mesylate” (priority 2012, dated 2015)

Key:
[1] = Physical stability of solid dispersions exposed in open containers to temperature/humidity stress (PLM, XRPD); type: physicochemical
Experimental: X-ray Powder Diffraction (XRPD): XRPD patterns were collected using a PANalytical X'Pert Pro diffractometer. The specimen was analyzed using Cu radiation produced using an Optix long fine-focus source. An elliptically graded multilayer mirror was used to focus the Cu Kα X-rays of the source through the specimen and onto the detector. The specimen was sandwiched between 3-micron thick films, analyzed in transmission geometry, and rotated to optimize orientation statistics. Soller slits were used for the incident and diffracted beams to minimize axial divergence. Diffraction patterns were collected using a scanning position-sensitive detector (X'Celerator) located 240 mm from the specimen. Prior to the analysis, a silicon specimen (NIST standard reference material 640d) was analyzed to verify the position of the silicon 111 peak.
Polarized Light Microscopy (PLM): Polarized light microscopy was performed using a Leica DM LP microscope equipped with Spot Insight color camera (model 3.2.0). […]
Physical stability experiments were conducted by exposing the dispersions in open containers at Room Temperature (RT) and at elevated temperature and different humidities (expressed as relative humidity, RH). […]
Physical stability was evaluated visually at RT/75% RH after approximately 24 h by PLM for evidence of birefringence and extinction indicative of crystalline material. […]

[2] = Aqueous solubility of paroxetine mesylate Form A; type: physicochemical; settings: water

Compound	Acceptable Physical Stability? RT/58% RH 3 d ([1]; 25° C./58% RH used instead of RT/58% RH (footnote b), 3 d)	Acceptable Physical Stability? 60° C./75% RH 2 h ([1]; 60° C./75% RH, 2 h)	solubility [2]
CS(=O)(=O)O.Fc1ccc([C@@H]2CCNC[C@H]2COc2ccc3c(c2)OCO3)cc1 [Example 1-2, paroxetine mesylate]	N	N	
CS(=O)(=O)O.Fc1ccc([C@@H]2CCNC[C@H]2COc2ccc3c(c2)OCO3)cc1 [paroxetine mesylate Form A, paroxetine mesylate]			> 1000 mg/mL
